This note sets out measurements from patent publication US10647713B2 (Nimbus Lakshmi, Inc., priority 2016, dated 2020).

human TYK2 (JH2domain-pseudokinase), sequence (P29597 556-888): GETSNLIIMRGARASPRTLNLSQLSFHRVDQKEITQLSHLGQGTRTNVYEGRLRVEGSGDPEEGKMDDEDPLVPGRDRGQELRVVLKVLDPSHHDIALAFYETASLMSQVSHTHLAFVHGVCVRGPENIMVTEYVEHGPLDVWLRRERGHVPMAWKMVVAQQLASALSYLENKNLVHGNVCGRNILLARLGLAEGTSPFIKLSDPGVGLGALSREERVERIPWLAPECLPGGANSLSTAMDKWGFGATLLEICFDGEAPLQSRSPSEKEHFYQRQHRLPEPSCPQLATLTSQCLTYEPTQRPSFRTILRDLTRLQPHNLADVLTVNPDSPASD

The assay addresses human TYK2 (JH2domain-pseudokinase) (Homo sapiens (Human), UniProt P29597). As to the kind of experiment: TYK2 JH2 Domain Binding Assay (KINOMEscan, DiscoveRx). The conditions noted are these: 11-point dilution, duplicate. Summed up:
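TYK2 JH2 (G556–D888)–NFkB DBD fusion, DNA-tagged, from HEK293 extracts (<0.1 nM) competed against immobilised biotinylated ligand for 1 h at room temperature, 0.9% DMSO. Bead-retained kinase quantified by qPCR; Kd from 11-point 3-fold series (top 30,000 nM, duplicate), Hill fit with slope −1.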
As for `Cc1nc2c(Nc3ccccc3S(C)(=O)=O)cc(Nc3cccc(C(F)(F)F)n3)nc2[nH]1` [I-600, 2-methyl-N7-(2-(methylsulfonyl)phenyl)-N5-(6-(trifluoromethyl)pyridin-2-yl)-3H-imidazo[4,5-b]pyridine-5,7-diamine], the Kd (in general, the free concentration of one partner at which half of the binding sites on the other are occupied at equilibrium, for simple one-to-one binding) fell in the range of 0.1 to 0.5 nM.

Regarding `Cc1nc2c(Nc3ccc(C4CCC(C)(C)CO4)cc3S(C)(=O)=O)cc(Nc3cnc(C)c(C)n3)nc2[nH]1` (stereo not shown) [I-601, N5-(5,6-dimethylpyrazin-2-yl)-N7-(4-(5,5-dimethyltetrahydro-2H-pyran-2-yl)-2-(methylsulfonyl)phenyl)-2-methyl-3H-imidazo[4,5-b]pyridine-5,7-diamine], the Kd fell in the range of 0.5 to 1 nM.

On to `CS(=O)(=O)c1ccccc1Nc1cc(Nc2cccc(C#N)n2)nc2[nH]c(C(F)F)nc12` [I-602, 6-((2-(difluoromethyl)-7-((2-(methylsulfonyl)phenyl)amino)-3H-imidazo[4,5-b]pyridin-5-yl)amino)picolinonitrile], for which the Kd is < 0.1 nM.

As to `Cc1nc2c(Nc3ccccc3S(C)(=O)=O)cc(Nc3cccc(C#N)n3)nc2[nH]1` [I-603, 6-((2-methyl-7-((2-(methylsulfonyl)phenyl)amino)-3H-imidazo[4,5-b]pyridin-5-yl)amino)picolinonitrile], the Kd was in the range of 0.1 to 0.5 nM.

In the case of `Cc1nc2c(Nc3ccc(C4COCCO4)cc3S(C)(=O)=O)cc(NC(=O)C3CC3)nc2[nH]1` (stereo not shown) [I-604, N-(7-((4-(1,4-dioxan-2-yl)-2-(methylsulfonyl)phenyl)amino)-2-methyl-3H-imidazo[4,5-b]pyridin-5-yl)cyclopropanecarboxamide], the Kd lay within 0.1 to 0.5 nM.

For `Cc1ncc(Nc2cc(Nc3ccc(C4CCC(C)(C)CO4)cc3S(C)(=O)=O)c3nc(C(F)F)[nH]c3n2)nc1C` (stereo not shown) [I-605, 2-(difluoromethyl)-N5-(5,6-dimethylpyrazin-2-yl)-N7-(4-(5,5-dimethyltetrahydro-2H-pyran-2-yl)-2-(methylsulfonyl)phenyl)-3H-imidazo[4,5-b]pyridine-5,7-diamine], the Kd is 0.1 to 0.5 nM.

In turn, `COc1c(Nc2cc(Nc3cccc(C(F)(F)F)n3)nc3[nH]c(C)nc23)cccc1-c1cnn(C)n1` [I-606, N7-(2-methoxy-3-(2-methyl-2H-1,2,3-triazol-4-yl)phenyl)-2-methyl-N5-(6-(trifluoromethyl)pyridin-2-yl)-3H-imidazo[4,5-b]pyridine-5,7-diamine] had a Kd of 1 to 10 nM.

Molecule `CCOc1ccc(Nc2cc(Nc3ccc(F)cc3S(C)(=O)=O)c3nc(C(F)F)[nH]c3n2)nc1C#N` [I-607, 6-((2-(difluoromethyl)-7-((4-fluoro-2-(methylsulfonyl)phenyl)amino)-3H-imidazo[4,5-b]pyridin-5-yl)amino)-3-ethoxypicolinonitrile] showed a Kd of 0.1 to 0.5 nM.

`CCOc1ccc(Nc2cc(Nc3ccc(F)cc3S(C)(=O)=O)c3nc(C)[nH]c3n2)nc1C#N` [I-608, 3-ethoxy-6-((7-((4-fluoro-2-(methylsulfonyl)phenyl)amino)-2-methyl-3H-imidazo[4,5-b]pyridin-5-yl)amino)picolinonitrile] displayed a Kd of 0.1 to 0.5 nM.

`Cc1nc2c(Nc3ccc([C@H]4CCC(C)(C)CO4)cc3S(C)(=O)=O)cc(Nc3cnc(C)c(C)n3)nc2[nH]1` [I-609, (R)—N5-(5,6-dimethylpyrazin-2-yl)-N7-(4-(5,5-dimethyltetrahydro-2H-pyran-2-yl)-2-(methylsulfonyl)phenyl)-2-methyl-3H-imidazo[4,5-b]pyridine-5,7-diamine] returned a Kd of 0.1 to 0.5 nM.

The molecule `Cc1nc2c(Nc3ccc([C@@H]4CCC(C)(C)CO4)cc3S(C)(=O)=O)cc(Nc3cnc(C)c(C)n3)nc2[nH]1` [I-610, (S)—N5-(5,6-dimethylpyrazin-2-yl)-N7-(4-(5,5-dimethyltetrahydro-2H-pyran-2-yl)-2-(methylsulfonyl)phenyl)-2-methyl-3H-imidazo[4,5-b]pyridine-5,7-diamine] gave a Kd of 1 to 10 nM.

As to `Cc1nc2c(Nc3ccc([C@@H]4COCCO4)cc3S(C)(=O)=O)cc(NC(=O)C3CC3)nc2[nH]1` [I-611, (R)—N-(7-((4-(1,4-dioxan-2-yl)-2-(methylsulfonyl)phenyl)amino)-2-methyl-3H-imidazo[4,5-b]pyridin-5-yl)cyclopropanecarboxamide], the Kd lay within 0.1 to 0.5 nM.

`Cc1nc2c(Nc3ccc([C@H]4COCCO4)cc3S(C)(=O)=O)cc(NC(=O)C3CC3)nc2[nH]1` [I-612, (S)—N-(7-((4-(1,4-dioxan-2-yl)-2-(methylsulfonyl)phenyl)amino)-2-methyl-3H-imidazo[4,5-b]pyridin-5-yl)cyclopropanecarboxamide] displayed a Kd of 0.1 to 0.5 nM.

Take `Cc1nc2c(Nc3ccc([C@H]4CCC(F)(F)CO4)cc3S(C)(=O)=O)cc(NC(=O)C3CC3)nc2[nH]1` [I-615, (R)—N-(7-((4-(5,5-difluorotetrahydro-2H-pyran-2-yl)-2-(methylsulfonyl)phenyl)amino)-2-methyl-3H-imidazo[4,5-b]pyridin-5-yl)cyclopropanecarboxamide]: the Kd is 0.5 to 1 nM.

With `Cc1nc2c(Nc3ccc([C@@H]4CCC(F)(F)CO4)cc3S(C)(=O)=O)cc(NC(=O)C3CC3)nc2[nH]1` [I-616, (S)—N-(7-((4-(5,5-difluorotetrahydro-2H-pyran-2-yl)-2-(methylsulfonyl)phenyl)amino)-2-methyl-3H-imidazo[4,5-b]pyridin-5-yl)cyclopropanecarboxamide], the Kd is 0.1 to 0.5 nM.

`CS(=O)(=O)c1ccccc1Nc1cc(Nc2ccc3c(n2)C(F)(F)CC3)nc2[nH]c(C(F)F)nc12` [I-617, N5-(7,7-difluoro-6,7-dihydro-5H-cyclopenta[b]pyridin-2-yl)-2-(difluoromethyl)-N7-(2-(methylsulfonyl)phenyl)-3H-imidazo[4,5-b]pyridine-5,7-diamine] came in with a Kd of 0.1 to 0.5 nM.

With `Cc1nc2c(Nc3ccccc3S(C)(=O)=O)cc(Nc3ccc4c(n3)C(F)(F)CC4)nc2[nH]1` [I-618, N5-(7,7-difluoro-6,7-dihydro-5H-cyclopenta[b]pyridin-2-yl)-2-methyl-N7-(2-(methylsulfonyl)phenyl)-3H-imidazo[4,5-b]pyridine-5,7-diamine], the dissociation constant (Kd) is < 0.1 nM.

With `COCCOc1ccc(Nc2cc(Nc3ccccc3S(C)(=O)=O)c3nc(C(F)F)[nH]c3n2)nc1C#N` [I-619, 6-((2-(difluoromethyl)-7-((2-(methylsulfonyl)phenyl)amino)-3H-imidazo[4,5-b]pyridin-5-yl)amino)-3-(2-methoxyethoxy)picolinonitrile], the Kd was < 0.1 nM.

For the molecule `COCCOc1ccc(Nc2cc(Nc3ccccc3S(C)(=O)=O)c3nc(C)[nH]c3n2)nc1C#N` [I-620, 3-(2-methoxyethoxy)-6-((2-methyl-7-((2-(methylsulfonyl)phenyl)amino)-3H-imidazo[4,5-b]pyridin-5-yl)amino)picolinonitrile], the Kd was < 0.1 nM.

With `COCCOc1ccc(Nc2cc(Nc3ccc(F)cc3S(C)(=O)=O)c3nc(C(F)F)[nH]c3n2)nc1C#N` [I-621, 6-((2-(difluoromethyl)-7-((4-fluoro-2-(methylsulfonyl)phenyl)amino)-3H-imidazo[4,5-b]pyridin-5-yl)amino)-3-(2-methoxyethoxy)picolinonitrile], the Kd is 0.1 to 0.5 nM.

`COCCOc1ccc(Nc2cc(Nc3ccc(F)cc3S(C)(=O)=O)c3nc(C)[nH]c3n2)nc1C#N` [I-622, 6-((7-((4-fluoro-2-(methylsulfonyl)phenyl)amino)-2-methyl-3H-imidazo[4,5-b]pyridin-5-yl)amino)-3-(2-methoxyethoxy)picolinonitrile]: the Kd was < 0.1 nM.

Turning to `CS(=O)(=O)c1ccccc1Nc1cc(Nc2ccc(OC3CCOCC3)c(C#N)n2)nc2[nH]c(C(F)F)nc12` [I-623, 6-((2-(difluoromethyl)-7-((2-(methylsulfonyl)phenyl)amino)-3H-imidazo[4,5-b]pyridin-5-yl)amino)-3-((tetrahydro-2H-pyran-4-yl)oxy)picolinonitrile], the Kd is < 0.1 nM.

With `Cc1nc2c(Nc3ccccc3S(C)(=O)=O)cc(Nc3ccc(OC4CCOCC4)c(C#N)n3)nc2[nH]1` [I-624, 6-((2-methyl-7-((2-(methylsulfonyl)phenyl)amino)-3H-imidazo[4,5-b]pyridin-5-yl)amino)-3-((tetrahydro-2H-pyran-4-yl)oxy)picolinonitrile], the dissociation constant (Kd) was < 0.1 nM.

Turning to `CS(=O)(=O)c1cc(F)ccc1Nc1cc(Nc2ccc(OC3CCOCC3)c(C#N)n2)nc2[nH]c(C(F)F)nc12` [I-625, 6-((2-(difluoromethyl)-7-((4-fluoro-2-(methylsulfonyl)phenyl)amino)-3H-imidazo[4,5-b]pyridin-5-yl)amino)-3-((tetrahydro-2H-pyran-4-yl)oxy)picolinonitrile], the Kd is 0.1 to 0.5 nM.

`Cc1nc2c(Nc3ccc(F)cc3S(C)(=O)=O)cc(Nc3ccc(OC4CCOCC4)c(C#N)n3)nc2[nH]1` [I-626, 6-((7-((4-fluoro-2-(methylsulfonyl)phenyl)amino)-2-methyl-3H-imidazo[4,5-b]pyridin-5-yl)amino)-3-((tetrahydro-2H-pyran-4-yl)oxy)picolinonitrile]: the Kd is < 0.1 nM.

The molecule `COc1c(Nc2cc(Nc3cccc(C(F)(F)F)n3)nc3[nH]c(C)nc23)cccc1-c1ncnn1C` [I-627, N7-(2-methoxy-3-(1-methyl-1H-1,2,4-triazol-5-yl)phenyl)-2-methyl-N5-(6-(trifluoromethyl)pyridin-2-yl)-3H-imidazo[4,5-b]pyridine-5,7-diamine] registered a Kd of 1 to 10 nM.

In turn, `COc1c(Nc2cc(Nc3ccc4c(n3)C(F)(F)CC4)nc3[nH]c(C)nc23)cccc1-c1ncnn1C` [I-628, N5-(7,7-difluoro-6,7-dihydro-5H-cyclopenta[b]pyridin-2-yl)-N7-(2-methoxy-3-(1-methyl-1H-1,2,4-triazol-5-yl)phenyl)-2-methyl-3H-imidazo[4,5-b]pyridine-5,7-diamine] returned a Kd of 0.5 to 1 nM.

In the case of `COc1c(Nc2cc(Nc3ccc4c(n3)C(F)(F)CC4)nc3[nH]c(C)nc23)cccc1-c1cnn(C)n1` [I-629, N5-(7,7-difluoro-6,7-dihydro-5H-cyclopenta[b]pyridin-2-yl)-N7-(2-methoxy-3-(2-methyl-2H-1,2,3-triazol-4-yl)phenyl)-2-methyl-3H-imidazo[4,5-b]pyridine-5,7-diamine], the Kd lay in the range of 0.5 to 1 nM.
